The values below come from patent publication US20200392158A1, “INHIBITORS OF LEUCINE RICH REPEAT KINASE 2” (GLAXOSMITHKLINE INTELLECTUAL PROPERTY DEVELOPMENT LIMITED, priority 2017, published 2020).

For assay [1], the target named is T1, full length G2019 human LRRK2 (Homo sapiens, UniProt Q5S007, R50H).
T1 construct: made in house; host or cells: HEK293 6E cells transduced with BacMam virus (virus generated in Sf9 cells)
Description: Full length G2019 human LRRK2 inhibition mass spectrometry assay. In kind it is biochemical. Particulars: LRRKtide to phospho-LRRKtide conversion, RapidFire MS, 2 mM ATP. The method, boiled down:
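Purified full-length Flag-tagged G2019 LRRK2, ~25 nM, with 25 μM LRRKtide and 2 mM ATP in 50 mM Hepes pH 7.2, 10 mM MgCl2, 150 mM NaCl, 1 h at room temperature. Quenched with formic acid; phospho- and unphosphorylated LRRKtide measured by RapidFire MS. pIC50 from 4-parameter fit of % conversion, 11 points, top 100 μM.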

Assay [2] addresses T2, LRRK2 kinase in SH-SY5Y cells over-expressing recombinant full length LRRK2 (Homo sapiens, UniProt Q5S007).
T2 construct: A BacMam virus expressing full length recombinant LRRK2 was purchased from Invitrogen; host or cells: SH-SY5Y human neuroblastoma cells transduced with BacMam LRRK2 virus
Nature of the assay: Recombinant cellular LRRK2 AlphaScreen assay (LRRK2 Ser935 phosphorylation). It counts as cell-based. Particulars: 60 min. The method, boiled down:
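SH-SY5Y cells transduced with BacMam full-length LRRK2 (MOI 50) for 24 h, then treated 60 min at 37 °C with compound (11-point 1:4 series, top 10 uM, 0.1% DMSO). Lysates probed by AlphaScreen for pSer935 vs total LRRK2; values fitted to a sigmoidal dose-response model.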
On the technique in general: In Alpha technology, singlet oxygen from a donor bead excites a nearby acceptor bead.

pIC50: −log10 of the molar value. Where only a bound is given, the exact number is not on record here.

A word on the pIC50: it is the negative decadic logarithm of the IC50, by convention in mol/L.

T2 sequence (Q5S007 whole entry): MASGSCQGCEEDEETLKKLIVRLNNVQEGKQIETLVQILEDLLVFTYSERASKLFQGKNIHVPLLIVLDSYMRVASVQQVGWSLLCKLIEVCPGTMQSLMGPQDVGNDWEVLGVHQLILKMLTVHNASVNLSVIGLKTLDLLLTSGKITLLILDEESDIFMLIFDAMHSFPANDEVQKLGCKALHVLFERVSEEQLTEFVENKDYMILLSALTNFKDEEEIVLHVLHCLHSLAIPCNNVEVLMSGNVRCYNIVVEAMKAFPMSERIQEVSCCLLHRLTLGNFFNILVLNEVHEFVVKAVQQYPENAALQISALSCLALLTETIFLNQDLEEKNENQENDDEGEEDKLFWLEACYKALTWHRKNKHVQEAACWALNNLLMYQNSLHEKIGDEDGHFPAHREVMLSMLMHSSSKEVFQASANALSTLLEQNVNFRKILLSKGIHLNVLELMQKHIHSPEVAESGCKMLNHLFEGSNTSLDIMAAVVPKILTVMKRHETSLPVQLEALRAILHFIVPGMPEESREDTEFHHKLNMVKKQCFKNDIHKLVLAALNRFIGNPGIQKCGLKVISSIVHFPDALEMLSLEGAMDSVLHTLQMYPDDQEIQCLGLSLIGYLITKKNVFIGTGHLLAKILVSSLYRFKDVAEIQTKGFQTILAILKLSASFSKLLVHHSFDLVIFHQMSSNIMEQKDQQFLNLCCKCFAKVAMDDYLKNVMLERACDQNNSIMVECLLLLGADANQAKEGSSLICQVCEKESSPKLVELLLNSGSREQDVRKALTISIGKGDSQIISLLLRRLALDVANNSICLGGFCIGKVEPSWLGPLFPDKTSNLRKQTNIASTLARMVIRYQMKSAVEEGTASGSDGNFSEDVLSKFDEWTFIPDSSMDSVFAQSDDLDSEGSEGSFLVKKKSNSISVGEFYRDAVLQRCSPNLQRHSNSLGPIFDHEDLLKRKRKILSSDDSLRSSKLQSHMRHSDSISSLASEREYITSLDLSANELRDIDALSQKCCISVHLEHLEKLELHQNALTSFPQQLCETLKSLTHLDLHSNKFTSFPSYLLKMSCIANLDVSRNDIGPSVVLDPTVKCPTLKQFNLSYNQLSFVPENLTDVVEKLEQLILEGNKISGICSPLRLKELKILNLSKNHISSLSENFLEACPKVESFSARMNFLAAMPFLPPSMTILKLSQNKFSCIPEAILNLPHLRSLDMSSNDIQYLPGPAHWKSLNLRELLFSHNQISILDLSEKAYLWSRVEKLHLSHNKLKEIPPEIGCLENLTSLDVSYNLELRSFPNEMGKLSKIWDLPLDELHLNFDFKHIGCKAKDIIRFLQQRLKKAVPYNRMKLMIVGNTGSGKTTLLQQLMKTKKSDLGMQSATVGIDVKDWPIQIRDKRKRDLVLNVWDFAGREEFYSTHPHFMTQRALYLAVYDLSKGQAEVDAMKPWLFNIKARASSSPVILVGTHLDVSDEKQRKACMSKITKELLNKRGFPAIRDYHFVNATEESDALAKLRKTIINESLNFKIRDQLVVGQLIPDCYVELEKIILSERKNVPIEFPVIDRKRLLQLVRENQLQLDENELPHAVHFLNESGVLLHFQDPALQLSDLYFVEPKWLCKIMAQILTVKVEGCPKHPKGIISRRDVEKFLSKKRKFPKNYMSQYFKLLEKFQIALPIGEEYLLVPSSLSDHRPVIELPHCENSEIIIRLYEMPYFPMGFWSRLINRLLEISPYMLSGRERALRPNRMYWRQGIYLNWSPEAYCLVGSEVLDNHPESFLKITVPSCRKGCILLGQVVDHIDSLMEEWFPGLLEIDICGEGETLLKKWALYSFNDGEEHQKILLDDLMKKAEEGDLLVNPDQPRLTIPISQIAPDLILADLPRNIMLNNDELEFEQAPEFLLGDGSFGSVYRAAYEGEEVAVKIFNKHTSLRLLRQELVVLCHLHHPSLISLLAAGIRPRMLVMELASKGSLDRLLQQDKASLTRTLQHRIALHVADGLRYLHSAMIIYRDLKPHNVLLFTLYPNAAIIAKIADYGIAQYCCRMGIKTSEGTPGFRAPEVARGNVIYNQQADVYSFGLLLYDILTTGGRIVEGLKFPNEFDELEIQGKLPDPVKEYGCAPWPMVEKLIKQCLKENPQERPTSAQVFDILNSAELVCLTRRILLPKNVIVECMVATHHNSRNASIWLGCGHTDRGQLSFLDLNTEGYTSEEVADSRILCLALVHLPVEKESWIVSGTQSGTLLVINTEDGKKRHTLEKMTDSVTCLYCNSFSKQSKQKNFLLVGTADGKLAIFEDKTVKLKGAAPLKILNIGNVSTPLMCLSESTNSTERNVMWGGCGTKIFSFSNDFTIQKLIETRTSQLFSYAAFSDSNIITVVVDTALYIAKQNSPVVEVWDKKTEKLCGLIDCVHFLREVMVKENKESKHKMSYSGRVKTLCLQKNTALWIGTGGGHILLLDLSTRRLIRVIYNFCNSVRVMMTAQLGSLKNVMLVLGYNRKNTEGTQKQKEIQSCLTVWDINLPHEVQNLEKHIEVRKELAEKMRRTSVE
T1 sequence (Q5S007 with tags, fused parts or gaps R50H): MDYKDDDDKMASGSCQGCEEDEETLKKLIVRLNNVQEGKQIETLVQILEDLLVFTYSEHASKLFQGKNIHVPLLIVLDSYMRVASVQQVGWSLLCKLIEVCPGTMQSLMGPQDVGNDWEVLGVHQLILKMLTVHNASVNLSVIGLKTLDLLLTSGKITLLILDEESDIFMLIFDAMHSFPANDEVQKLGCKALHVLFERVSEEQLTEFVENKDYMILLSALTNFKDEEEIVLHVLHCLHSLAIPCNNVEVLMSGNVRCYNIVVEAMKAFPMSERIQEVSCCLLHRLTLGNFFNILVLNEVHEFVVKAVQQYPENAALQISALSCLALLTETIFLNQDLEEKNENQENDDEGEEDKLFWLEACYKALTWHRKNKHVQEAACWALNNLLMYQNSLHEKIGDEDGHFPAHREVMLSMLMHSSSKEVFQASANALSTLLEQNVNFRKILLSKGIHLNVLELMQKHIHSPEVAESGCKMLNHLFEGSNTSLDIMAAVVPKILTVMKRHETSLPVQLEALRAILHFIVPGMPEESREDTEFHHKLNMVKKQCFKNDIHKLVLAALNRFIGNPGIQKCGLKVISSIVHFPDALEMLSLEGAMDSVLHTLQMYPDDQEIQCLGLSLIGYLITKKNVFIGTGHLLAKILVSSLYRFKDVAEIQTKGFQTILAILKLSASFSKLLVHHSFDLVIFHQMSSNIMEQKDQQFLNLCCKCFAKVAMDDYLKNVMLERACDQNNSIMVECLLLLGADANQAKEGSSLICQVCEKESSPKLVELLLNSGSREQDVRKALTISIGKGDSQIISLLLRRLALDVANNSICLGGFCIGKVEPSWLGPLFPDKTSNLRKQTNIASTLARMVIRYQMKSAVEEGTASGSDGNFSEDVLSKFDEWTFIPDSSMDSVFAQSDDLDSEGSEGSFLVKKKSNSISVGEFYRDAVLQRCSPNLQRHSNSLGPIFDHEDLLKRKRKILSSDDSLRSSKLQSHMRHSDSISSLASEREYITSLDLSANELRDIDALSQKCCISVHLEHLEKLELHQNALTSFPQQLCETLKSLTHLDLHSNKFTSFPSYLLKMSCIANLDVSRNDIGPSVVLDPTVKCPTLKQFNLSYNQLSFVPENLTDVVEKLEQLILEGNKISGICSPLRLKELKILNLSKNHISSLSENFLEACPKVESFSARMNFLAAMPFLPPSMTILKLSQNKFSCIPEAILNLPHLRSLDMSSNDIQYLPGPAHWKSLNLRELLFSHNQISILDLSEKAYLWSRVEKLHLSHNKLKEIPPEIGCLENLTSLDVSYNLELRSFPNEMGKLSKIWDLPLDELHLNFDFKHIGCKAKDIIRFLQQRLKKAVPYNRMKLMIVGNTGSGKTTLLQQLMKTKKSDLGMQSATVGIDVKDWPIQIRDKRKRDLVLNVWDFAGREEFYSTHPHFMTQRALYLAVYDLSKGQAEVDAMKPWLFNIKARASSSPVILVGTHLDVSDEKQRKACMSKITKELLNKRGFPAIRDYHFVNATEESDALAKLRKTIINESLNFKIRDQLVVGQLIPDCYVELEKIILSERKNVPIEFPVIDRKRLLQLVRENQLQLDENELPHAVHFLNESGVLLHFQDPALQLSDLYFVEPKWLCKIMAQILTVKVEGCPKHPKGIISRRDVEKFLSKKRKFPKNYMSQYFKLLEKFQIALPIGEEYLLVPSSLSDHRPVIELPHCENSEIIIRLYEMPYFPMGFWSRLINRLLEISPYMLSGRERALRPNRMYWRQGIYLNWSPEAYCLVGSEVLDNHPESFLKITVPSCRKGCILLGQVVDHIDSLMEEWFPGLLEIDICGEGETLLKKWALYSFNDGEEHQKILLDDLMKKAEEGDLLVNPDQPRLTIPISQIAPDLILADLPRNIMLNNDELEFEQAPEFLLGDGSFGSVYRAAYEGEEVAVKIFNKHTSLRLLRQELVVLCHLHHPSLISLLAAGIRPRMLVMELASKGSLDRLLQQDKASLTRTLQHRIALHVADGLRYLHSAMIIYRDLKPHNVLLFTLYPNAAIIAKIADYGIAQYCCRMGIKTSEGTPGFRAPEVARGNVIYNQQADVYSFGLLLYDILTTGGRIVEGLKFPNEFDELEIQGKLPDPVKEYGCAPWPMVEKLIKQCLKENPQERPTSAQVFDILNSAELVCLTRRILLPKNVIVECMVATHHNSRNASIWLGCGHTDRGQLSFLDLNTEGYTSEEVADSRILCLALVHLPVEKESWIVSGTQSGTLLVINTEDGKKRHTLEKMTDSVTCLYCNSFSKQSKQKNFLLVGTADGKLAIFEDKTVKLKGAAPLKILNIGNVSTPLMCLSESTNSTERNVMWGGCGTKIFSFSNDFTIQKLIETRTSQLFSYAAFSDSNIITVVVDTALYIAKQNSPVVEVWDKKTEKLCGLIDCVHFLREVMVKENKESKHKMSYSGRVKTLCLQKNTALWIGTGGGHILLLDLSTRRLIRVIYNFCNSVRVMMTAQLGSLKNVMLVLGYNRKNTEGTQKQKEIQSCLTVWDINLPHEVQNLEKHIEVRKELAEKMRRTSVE

As for `Cc1c2c(nn1C1CCOC(C)C1)OCCC(C(F)F)Nc1nc(ncc1Cl)N2` (centres unmarked) [E386, 14-Chloro-11-(difluoromethyl)-4-methyl-5-(2-methyloxan-4-yl)-8-oxa-2,5,6,12,16,17-hexaazatricyclo[11.3.1.0^3,7]heptadeca-1(16),3,6,13(17),14-pentaene], the pIC50 in assay [1] and in assay [2] was not below 7.00 throughout.

Turning to `Cc1[nH]nc2c1Nc1ncc(Cl)c(n1)NCCCO2` [E395, 14-Chloro-4-methyl-8-oxa-2,5,6,12,16,17-hexaazatricyclo [11.3.1.0^3,7]heptadeca-1(16),3,6,13(17),14-pentaene], the pIC50 in assay [1] and in assay [2] was not below 7.00 each time.

Consider `Cc1c2c(nn1C1CCOC1)OCCCNc1nc(ncc1C(F)(F)F)N2` (single isomer, unassigned) [E127, 4-methyl-5-(oxolan-3-yl)-14-(trifluoromethyl)-8-oxa-2,5,6,12,16,17-hexaazatricyclo[11.3.1.0^3,7]heptadeca-1(16),3,6,13(17),14-pentaene], for which the pIC50 in assay [1] and in assay [2] was not below 7.00 in each case.

As for `Cc1c2c(nn1CCN1CCC(F)C1)OCCC(C)Nc1nc(ncc1Cl)N2` (single isomer, unassigned) [E218, 14-Chloro-5-[2-(3-fluoropyrrolidin-1-yl)ethyl]-4,11-dimethyl-8-oxa-2,5,6,12,16,17-hexaazatricyclo [11.3.1.0^3,7] heptadeca-1(16),3,6,13(17),14-pentaene], the pIC50 in assay [1] and in assay [2] was not below 7.00 each time.

In the case of `Cc1c2c(nn1C1CC(N3CCOCC3)C1)OCC[C@@H](C)Nc1nc(ncc1Cl)N2` (stereo partly drawn) [E106, (11R)-14-chloro-4,11-dimethyl-5-[3-(morpholin-4-yl)cyclobutyl]-8-oxa-2,5,6,12,16,17-hexaazatricyclo[11.3.1.0^3,7]heptadeca-1(16),3,6,13(17),14-pentaene], the pIC50 in assay [1] and in assay [2] was not below 7.00 each time.

In the case of `C=Cc1cnc2nc1N[C@H](C)CCOc1nn(C3CCOCC3)c(C)c1N2` [E389, (11R)-14-Ethenyl-4,11-dimethyl-5-(oxan-4-yl)-8-oxa-2,5,6,12,16,17-hexaazatricyclo[11.3.1.0^3,7]heptadeca-1(16)53,6,13(17),14-pentaene], the pIC50 in assay [1] and in assay [2] was not below 7.00 in each case.

For the compound `Cc1c2c(nn1C1CCOCC1)OCC(C)C(C)Nc1nc(ncc1Cl)N2` (single isomer, unassigned) [E32, 14-chloro-4,10,11-trimethyl-5-(oxan-4-yl)-8-oxa-2,5,6,12,16,17-hexaazatricyclo [11.3.1.0^3,7]heptadeca-1(16),3,6,13(17),14-pentaene], the pIC50 in assay [1] and in assay [2] was not below 7.00 in each case.

Consider `Cc1c2c(nn1C1CCOCC1)OCCCOc1nc(ncc1Cl)N2` [E110, 14-Chloro-4-methyl-5-(oxan-4-yl)-8,12-dioxa-2,5,6,16,17-pentaazatricyclo[11.3.1.0^3,7]heptadeca-1(16),3,6,13(17),14-pentaene], for which the pIC50 in assay [1] and in assay [2] was not below 7.00 in each case.

Take `Cc1c2c(nn1C1COC1)OCCCNc1nc(ncc1Br)N2` [E66, 14-Bromo-4-methyl-5-(oxetan-3-yl)-8-oxa-2,5,6,12,16,17-hexaazatricyclo[11.3.1.0^3,7]heptadeca-1(16),3,6,13(17),14-pentaene]: the pIC50 in assay [1] and in assay [2] was not below 7.00 each time.

As to `Cc1c2c(nn1CCN1C[C@@H]3C[C@H]1CO3)OCCCNc1nc(ncc1Cl)N2` (stereo in doubt) [E221, 14-Chloro-4-methyl-5-{2-[(1S,4S)-2-oxa-5-azabicyclo[2.2.1]heptan-5-yl]ethyl}-8-oxa-2,5,6,12,16,17-hexaazatricyclo [11.3.1.0^3,7]heptadeca-1(16),3,6,13(17),14-pentaene], the pIC50 in assay [1] and in assay [2] was not below 7.00 each time.

Take `Cc1c2c(nn1C1CCCOC1)OCC(C)CNc1nc(ncc1Cl)N2` (single isomer, unassigned) [E306, 14-Chloro-4,10-dimethyl-5-(oxan-3-yl)-8-oxa-2,5,6,12,16,17-hexaazatricyclo[11.3.1.0^3,7]heptadeca-1(16),3,6, 13(17),14-pentaene]: the pIC50 in assay [1] and in assay [2] was not below 7.00 throughout.

For the compound `C[C@@H]1CCOc2nn(C3CCOCC3)c(C(F)(F)F)c2Nc2ncc(Cl)c(n2)N1` [E416, (11R)-14-Chloro-11-methyl-5-(oxan-4-yl)-4-(trifluoromethyl)-8-oxa-2,5,6,12,16,17-hexaazatricyclo[11.3.1.0^3,7]heptadeca-1(16),3,6,13(17),14-pentaene], the pIC50 in assay [1] and in assay [2] was not below 7.00 each time.

For the compound `Cc1[nH]nc2c1Nc1ncc(C(F)(F)F)c(n1)NCCCO2` [E433, 4-Methyl-14-(trifluoromethyl)-8-oxa-2,5,6,12,16,17-hexaazatricyclo[11.3.1.0^3,7]heptadeca-1(16),3,6,13(17),14-pentaene], the pIC50 in assay [1] and in assay [2] was not below 7.00 throughout.

For the compound `Cc1c2c(nn1CCN1CCC(F)(F)C1)OCCC(C)Nc1nc(ncc1Cl)N2` (single isomer, unassigned) [E215, 14-Chloro-5-[2-(3,3-difluoropyrrolidin-1-yl)ethyl]-4,11-dimethyl-8-oxa-2,5,6,12,16,17-hexaazatricyclo [11.3.1.0^3,7]heptadeca-1(16),3,6,13(17),14-pentaene], the pIC50 in assay [1] and in assay [2] was not below 7.00 throughout.

Take `Cc1[nH]nc2c1Nc1ncc(Br)c(n1)NCCCO2` [E432, 14-Bromo-4-methyl-8-oxa-2,5,6,12,16,17-hexaazatricyclo[11.3.1.0^3,7]heptadeca-1(16),3,6,13(17),14-pentaene]: the pIC50 in assay [1] and in assay [2] was not below 7.00 throughout.

As for `Cc1c2c(nn1CCN1CCOCC1)OCCC(C)Nc1nc(ncc1Cl)N2` (single isomer, unassigned) [E213, 14-Chloro-4,11-dimethyl-5-[2-(morpholin-4-yl)ethyl]-8-oxa-2,5,6,12,16,17-hexaazatricyclo[11.3.1.0^3,7] heptadeca-1(16),3,6,13(17),14-pentaene], the pIC50 in assay [1] and in assay [2] was not below 7.00 in each case.

Regarding `Cc1c2c(nn1C1CC(N3CC4CC3CO4)C1)OCC[C@@H](C)Nc1nc(ncc1Cl)N2` (stereo in doubt) [E318, (11R)-14-Chloro-4,11-dimethyl-5-{3-[(1R,4R)-2-oxa-5-azabicyclo[2.2.1]heptan-5-yl]cyclobutyl}-8-oxa-2,5,6,12,16,17-hexaazatricyclo[11.3.1.0^3,7]heptadeca-1(16),3,6,13(17),14-pentaene], the pIC50 in assay [1] and in assay [2] was not below 7.00 each time.

Consider `Cc1c2c(nn1C1CCOCC1)OCCC(C)Nc1nc(ncc1Br)N2` (single isomer, unassigned) [E30, 14-bromo-4,11-dimethyl-5-(oxan-4-yl)-8-oxa-2,5,6,12,16,17-hexaaza tricyclo[11.3.1.0^3,7]heptadeca-1(16),3,6,13(17),14-pentaene], for which the pIC50 in assay [1] and in assay [2] was not below 7.00 throughout.

As to `Cc1c2c(nn1C1CC(N3CCC(F)(F)C3)C1)OCCCNc1nc(ncc1Cl)N2` (centres unmarked) [E312, 14-Chloro-5-[3-(3,3-difluoropyrrolidin-1-yl)cyclobutyl]-4-methyl-8-oxa-2,5,6,12,16,17-hexaazatricyclo[11.3.1.0^3,7] heptadeca-1(16),3,6,13(17),14-pentaene], the pIC50 is 4.00 in assay [1] and not below 7.00 in assay [2].
